Data taken from patent US11214835B1, “Methods and compositions for diagnosis and management of neurodegerative diseases” (UNIVERSITY OF SOUTH FLORIDA, priority 2017, dated 2022).

Test system: GAS5 lncRNA
Assay: γ-AApeptide OBOC combinatorial library screen with fluorescein tagged GAS5 oligonucleotide, hits validated in vitro
Assay type: binding
Settings: fluorescein tagged GAS5 oligonucleotide probe, tRNA as control
Excerpt: The interaction between UPF1 and GAS5 was disrupted using a γ-AApeptide based one-bead-one-compound (OBOC) combinatorial library (Wu H, Li Y, Bai G, Niu Y, Qiao Q, Tipton J D, Cao C, Cai J. gamma-AApeptide-based small-molecule ligands that inhibit Abeta aggregation. Chemical communications. 2014; 50(40):5206-8. doi: 10.1039/c3cc46685j. PubMed PMID: 24158240). The γ-AApeptide is a peptidomimetic with side chains for chemical diversity and are resistant to proteolytic cleavage. To screen the compound library, a probe that contained a fluorescein tagged oligonucleotide was synthesized. The probe spanned 30 nucleotides on either side of the UAA sequences on GAS5 (FIG. 13) The fluorescein was attached to the 5′end (beginning of oligonucleotide probe sequence). The nucleotide sequence within the GAS5 IncRNA that the oligonucleotide probe binds to can be about 100% identical to […] (SEQ ID NO: 4), which is nucleotides 541 to 651 of SEQ ID NO: 1. The underlined regions indicate the UAA that is the target regions. As such, the oligonucleotide probe was designed to flank both sides of these target regions.
The length of oligonucleotide was required to maintain stem loop structure to specifically bind to GAS5. Further, we modeled the oligonucleotide (RNAfold software) to evaluate its folding and verified absence of any unwanted secondary structures. The backbone was modified by 2′-MOE (2′-O-methoxyethylribose), which protects it from degradation and a fluoroscein tag was attached to the 5′end to aid in screening. The oligonucleotide probe was used to screen 160,000 molecules in the combinatorial library using tRNA as control (as tRNA has similar stem loop secondary structures). […] The compound having a structure according to Formula 3 was determined to have a chemical formula of C68H92N10O9S, a mass of about 1224.6769, and a molecular weight of 1225.6050. The compound having a structure according to Formula 14 was determined to have a chemical formula of C63H85N9O13S, a mass of about 1207.5988, and a molecular weight of 1208.4830. […]

| Structure (SMILES) | ability to bind GAS5 (identified and validated from library screen) |
| --- | --- |
| CC(C)C[C@H]1CN(C(=O)CC2CC2)CC(=O)N[C@@H](CCCCN)CN(C(=O)CCc2ccccc2)CC(=O)N[C@@H](Cc2ccccc2)CN(CC(N)=O)C(=O)CCSCc2ccc(cc2)C(=O)N[C@@H](Cc2ccccc2)CN(C(=O)CC2CC2)CC(=O)N1 [Formula G5-1397] | able to bind GAS5 |
| NCCCC[C@H]1CN(C(=O)CCc2ccccc2)CC(=O)N[C@@H](CCC(=O)O)CN(CC(N)=O)C(=O)CCSCc2ccc(cc2)C(=O)N[C@@H](CCC(=O)O)CN(C(=O)CCC(=O)O)CC(=O)N[C@@H](CCCCN)CN(C(=O)CCCN)CC(=O)N1 [NPG567] | can bind GAS5 |
